Legend:
[1] = Water solubility of delivery agent
[2] = in vivo

Row | water solubility [1] | absorbed by the gastro-intestinal tract [2] | SMILES
1 | very water soluble | – | O=C(O)CCCCCCCNC(=O)c1cc(Cl)ccc1O [5 CNAC, N-(5-chlorosalicyloyl)-8-aminocaprylic acid]
2 | – | greater than 90% | O=C(O)CCCCCCCCCNC(=O)c1ccccc1O [SNAD, N-(10-[2-hydroxybenzoyl]amino)decanoic acid]

Reference: patent publication US8748383B2, “Method for treating bone related diseases and calcium disorders” (Novartis AG, priority 2003, dated 2014)
